Data: patent US20020187925A1, “Modulating the activity of hormones or their receptors - peptides, antibodies, vaccines and uses thereof” (priority 1996, published 2002)
Non-standard residues stand in square brackets, D forms with d. No end group written: not given here. NMeY = CN[C@@H](Cc1ccc(O)cc1)C(=O)O

Experiments:
[1] = Growth of piglets suckling dams vaccinated in last trimester of pregnancy; type: in vivo, pigs; conditions: birth to weaning
Description: Piglets suckling dams which had been vaccinated with this molecule in the last trimester of pregnancy grew an average of 40% faster from birth to weaning than did corresponding piglets which were suckling non-immunised dams.

[2] = Solubility in sterile saline; type: physicochemical; conditions: sterile physiological saline / sterile saline solutions
[3] = Example 22: pregnant pigs immunised twice in last trimester; anti-SRIF antibodies and piglet growth rates; type: in vivo; conditions: for absolute growth rates of the piglets: birth to weaning, non-immunised control 165; for anti-SRIF antibodies in colostrum and milk of the sow and in blood and gut scrapings of piglets: piglets at 3 days and 21 days of age, antigen in the preferred oil
Description: The absolute growth rates of the piglets from birth to weaning were: […]

[4] = Example 23: weaning weight of piglets of immunised sows; type: in vivo, pigs; conditions: 21 days of age; sows immunized twice in last trimester
Description: Sows immunized twice in the last trimester of pregnancy with SEQ ID No 3 produced piglets which were on average 27% heavier at weaning (at 21 days of age) than the offsprings of sows immunised with SRIF 14 conjugate vaccine. The levels of anti-SRIF antibodies measured are given below: […]

[5] = system: SRIF; assay: Example 23: levels of anti-SRIF antibodies in gut, plasma, milk; type: in vivo, pigs; conditions: for Gut IgA anti-SRIF antibodies / Gut IgG anti-SRIF antibodies / Plasma IgA anti-SRIF antibodies / Plasma IgG anti-SRIF antibodies: piglets
Description: Sows immunized twice in the last trimester of pregnancy with SEQ ID No 3 produced piglets which were on average 27% heavier at weaning (at 21 days of age) than the offsprings of sows immunised with SRIF 14 conjugate vaccine. The levels of anti-SRIF antibodies measured are given below:
Significant quantities of antibodies to SRIF were detected in the plasma and gut scrapings of piglets sucking sows immunised with SRIF/BSA or SEQ ID NO:3 emulsified in the oil of the invention.

[6] = Example 17: sows of Example 16 during lactation; liveweight loss; type: in vivo, pigs
Description: This experiment was a continuation of the trial of Example 16. It sought to observe the rate of liveweight gain of piglets during the lactation period up to weaning for piglets whose dams were immunised during gestation with FEEDMIZA, or with a SRIF-conjugate vaccine, using piglets being reared by non-immunised dams as controls.
Sows from Example 16 continued to be reared without any further immunisations or manipulations, with the exception that;
a) daily feed offered was increased to 6 kg per head from farrowing to weaning 21 days later.
b) 3 days after farrowing the number of piglets on each sow was reduced to 8 to ensure that each litter of pigs in the experiment was benefiting from the combined effects of the quantity of milk produced, and ingested any antibodies that might be in them, without confounding influences of varying litter sizes, social interactions, and competition for teats. Sows were weighed at weaning.
Piglets were individually identified at birth, and were weighed at birth, and each 7 days until weaning at 21 days of age. All piglets received a routine oral dose of broad spectrum antibiotic (Tribrissen Piglet Suspension, Intervet, Melbourne) at three days of age, as well as an intramuscular supplemental iron injection Pignaemia, Intervet, Melbourne)
Water was available ad libitum to sows and piglets at all times.

[7] = Example 16: pregnant gilts immunised with FEEDMIZA or SRIF-conjugate; liveweight gain, feed conversion; type: in vivo, pigs
Protocol: This experiment was designed to measure the effects of vaccinating pregnant gilts with FEEDMIZA by the subcutaneous route during first pregnancy. Opportunity was taken to compare any response to FEEDMIZA with response to a SRIF-conjugate vaccine delivered in the same delivery vehicle as peptide No.1. For that comparison the quantity of antigen was standardised at 100 μg of SRIF in the SRIF-conjugate, and 100 μg of the FEEDMIZA antigen.
Twenty four Landrace X Large White female hybrid gilts were selected, mated and held in conventional dry sow stalls. They were randomly assigned to 3 treatment groups, viz:
The gilts were immunised by subcutaneous injection of 3 ml of the relevant antigen at the neck-on the day of mating.
The animals were held in conventional single dry sow stalls. At 30 days of pregnancy the treatment groups were reduced to 5 confirmed pregnant animals per treatment group. Subsequent vaccinations were performed at weeks 6, 9 and 12 of pregnancy. Each gilt was fed 3 kg of feed (Breedmore sow ration, Barastoc, Melbourne) each day from mating until farrowing. Each animal was weighed at mating, and at intervals of 3 weeks until farrowing.

[8] = Example 18: liveweights of piglets of immunised sows; type: in vivo, pigs
Description: This experiment sought to study the effects pre-farrowing immunisation of sows with SRIF-conjugate vaccine, or FEEDMIZA vaccine on the subsequent patterns of liveweight gain of their sucking piglets to weaning at 3 weeks of age, and for the post-weaning period The experiment monitored the piglets which were the subject of the previous experiment.
The piglets (8 per litter) on each of the 5 sows in the treatment groups (non-immunised, SRIF-conjugate immunised and FEEDMZA-immunised) were individually eartagged for identification, and were weighed at birth, 7, 14, 21 days (the day of weaning) and 35 days of age (2 weeks post-weaning).
During lactation the piglets had ready access to a creep area which was warmed by an infra-red lamp, water ad libitum and creep feed granules (Barastoc, Melbourne) for the period of 18-21 days of age. They had no access to their mothers feed during the period of lactation
At weaning each litter of piglets was placed in a flatdeck weaning cage with 50% of the floor being bedding area, and 50% woven wire mesh. The cage was provided with a small silo feeder containing the same creep/weaner feed which had been offered to the piglets for the 3 days prior to weaning. Feed and fresh drinking water were offered ad libitum.

[9] = Immunisation of male pigs from 12 weeks of age; type: in vivo
Description: Male pigs immunised with this peptide three times from 12 weeks of age grew an average of […] faster than non-immunised pigs to 24 weeks of age, and the testicle size of the immunised pigs was approximately 50% the size of those of the non-immunised animals.

[10] = Immunisation of growing lambs with antigen in oil; type: in vivo
Protocol: When this antigen was injected three times into growing lambs with the preferred delivery vehicle (oil), anti-SRIF and anti-cholecystokinin antibodies were detectable at 84 days of age. By this time, the immunised lambs had grown an average of 20% more than non-immunised lambs.

NMe-Y-D-T-K-V-F-C-S ([NMeY]DTKVFCS) [SEQ ID NO:51]
growth of suckling piglets faster than piglets suckling non-immunised dams [1]: 40% | solubility in sterile saline [2]: very poorly soluble

F-W-K-T-S-G-G (FWKTSGG) [SEQ ID NO:4]
absolute growth rates of the piglets [3]: 240 g per day | anti-SRIF antibodies in colostrum and milk of the sow and in blood and gut scrapings of piglets [3]: produced anti-SRIF antibodies

LCFWKTC [SEQ ID NO:1]
solubility in sterile saline [2]: relatively soluble

C-F-W-K-T-C-S-G (CFWKTCSG; not fully specified (bridges); printed as C-F-W-K-T-C-S-G; cysteine pairing not given here) [SEQ ID NO:3]
piglets heavier at weaning than offspring of sows immunised with SRIF 14 conjugate vaccine [4]: 27% | absolute growth rates of the piglets [3]: 275 g per day | anti-SRIF antibodies in colostrum and milk of the sow and in blood and gut scrapings of piglets [3]: produced anti-SRIF antibodies | Milk/colostrum IgA anti-SRIF antibodies ([5]; DAY 3): 0.026 ± 0.028 OD @ 405 nm | Sow's milk IgG anti-SRIF antibodies ([5]; DAY 3): 1.4 ± 0.162 OD @ 405 nm | Gut IgA anti-SRIF antibodies ([5]; DAY 3): 0.12 ± 0.157 OD @ 405 nm | Gut IgG anti-SRIF antibodies ([5]; DAY 3): 0.51 ± 0.21 OD @ 405 nm | Plasma IgA anti-SRIF antibodies ([5]; DAY 3): 1.43 ± 0.217 OD @ 405 nm | Plasma IgG anti-SRIF antibodies ([5]; DAY 3): 0.9 ± 0.13 OD @ 405 nm | Gut IgA anti-SRIF antibodies ([5]; DAY 21): 0.10 ± 0.087 OD @ 405 nm | Gut IgG anti-SRIF antibodies ([5]; DAY 21): 0.123 ± 0.09 OD @ 405 nm | Plasma IgA anti-SRIF antibodies ([5]; DAY 21): 0.567 ± 0.21 OD @ 405 nm | Plasma IgG anti-SRIF antibodies ([5]; DAY 21): 2.12 ± 0.23 OD @ 405 nm

F-W-K-T-S-T-K-T-S-T-K-W-F (FWKTSTKTSTKWF) [SEQ ID NO:5]
anti-SRIF antibodies in colostrum and milk of the sow and in blood and gut scrapings of piglets [3]: produced anti-SRIF antibodies

SRIF-conjugate: SRIF-conjugate vaccine delivered in the same delivery vehicle as peptide No.1 (SANSNPAMAPRERKAGCKNFFWKTFTSC; ends and bridges not checked; also: SRIF-conjugate vaccine (conjugated, site not given here))
Farrowing weight ([6]; sows): 154 ± 27.68 kg | Weaning weight ([6]; sows): 166.4 ± 26 kg | Weight loss ([6]; sows, farrowing to weaning): 7.2 | mean loss of liveweight of sows ([6]; three weeks lactation period, non-immunised 10.8): 12 kg | average liveweight gain per head during pregnancy ([7]; mating to parturition, 345 Kg feed, non-immunised 60): 75 kg | liveweight relative to non-immunised sows ([7]; weeks 12 and 15 of pregnancy (SRIF: from 9 weeks)): at no point was this difference ever stastically significant | liveweights of the piglets at weaning ([8]; 21 days of age): 7.32 ± 1.30 kg | Liveweights of the piglets 2 weeks after weaning ([8]; 35 days of age): 8.89 ± 1.33 kg | mean birthweights of the piglets ([8]; born to immunised sows): 1.40 ± 0.29 kg

SRIF/BSA: SRIF 14 (native somatostatin) conjugate presented with the preferred oil [reference compound]
absolute growth rates of the piglets [3]: 180 g per day | anti-SRIF antibodies in colostrum and milk of the sow and in blood and gut scrapings of piglets [3]: produced anti-SRIF antibodies | Milk/colostrum IgA anti-SRIF antibodies ([5]; DAY 3): 0.029 ± 0.035 OD @ 405 nm | Sow's milk IgG anti-SRIF antibodies ([5]; DAY 3): 1.6 ± 0.22 OD @ 405 nm | Gut IgA anti-SRIF antibodies ([5]; DAY 3): 0.189 ± 0.133 OD @ 405 nm | Gut IgG anti-SRIF antibodies ([5]; DAY 3): 0.684 ± 0.548 OD @ 405 nm | Plasma IgA anti-SRIF antibodies ([5]; DAY 3): 1.067 ± 0.469 OD @ 405 nm | Plasma IgG anti-SRIF antibodies ([5]; DAY 3): 1.38 ± 0.44 OD @ 405 nm | Gut IgA anti-SRIF antibodies ([5]; DAY 21): 0.037 ± 0.05 OD @ 405 nm | Gut IgG anti-SRIF antibodies ([5]; DAY 21): 0.259 ± 0.18 OD @ 405 nm | Plasma IgA anti-SRIF antibodies ([5]; DAY 21): 0.798 ± 0.49 OD @ 405 nm | Plasma IgG anti-SRIF antibodies ([5]; DAY 21): 1.779 ± 0.13 OD @ 405 nm

F-W-K-T-S-K-H-W-S-Y-G-L-R-D-G-C (FWKTSKHWSYGLRDGC) [SEQ ID NO:53]
grew faster than non-immunised pigs ([9]; male pigs immunised three times from 12 weeks, to 24 weeks of age): 12 weeks | testicle size relative to non-immunised animals ([9]; male pigs, 24 weeks of age): approximately 50%

A-Y-M-G-W-S-C-T-K-W-F (AYMGWSCTKWF) [SEQ ID NO:52]
growth more than non-immunised lambs ([10]; by 84 days of age): 20% | anti-SRIF and anti-cholecystokinin antibodies ([10]; lambs injected three times in oil, at 84 days of age): detectable
